# From ChEMBL document CHEMBL6083202, “The isolation of sclerotinin A as an anti-malarial compound by utilization of a global secondary metabolism regulator, laeA gene” (Bioorg Med Chem Lett, 2024)
# Active and inactive are the calls of the source. No cut-off for these calls is given here.
# Legend:
# [1] = Selectivity index, ratio of IC50 for human HeLa cells to IC50 for chloroquine-resistant Plasmodium falciparum K1; format: toxicity, cell-based; conditions: read-out: Ratio IC50
# [2] = Selectivity index, ratio of IC50 for human MRC5 cells to IC50 for chloroquine-resistant Plasmodium falciparum K1; format: toxicity, cell-based; conditions: read-out: Ratio IC50
# Plasmodium falciparum [3] = test: Antimalarial activity against chloroquine-resistant Plasmodium falciparum K1; format: functional, organism-based
# Plasmodium falciparum [4] = test: Antimalarial activity against chloroquine-sensitive Plasmodium falciparum FCR3; format: functional, organism-based
# Saccharomyces cerevisiae = test: Antifungal activity against multidrug sensitive Saccharomyces cerevisiae 12gene mutant 0HSR-iERG6 at 10 ug; format: functional, organism-based; conditions: dose 10.0 µg
# [5] = Cytotoxicity against human MRC5 cells; format: toxicity, cell-based
# [6] = Cytotoxicity against human HeLa cells; format: toxicity, cell-based
# [7] = Cytotoxicity against human HepG2 cells; format: toxicity, cell-based
# [8] = Cytotoxicity against human A549 cells; format: toxicity, cell-based
# [9] = Selectivity index, ratio of IC50 for human HepG2 cells to IC50 for chloroquine-resistant Plasmodium falciparum K1; format: toxicity, cell-based; conditions: read-out: Ratio IC50
# [10] = Selectivity index, ratio of IC50 for human A549 cells to IC50 for chloroquine-resistant Plasmodium falciparum K1; format: toxicity, cell-based; conditions: read-out: Ratio IC50
# [11] = Selectivity index, ratio of IC50 for human MRC5 cells to IC50 for chloroquine-sensitive Plasmodium falciparum FCR3; format: toxicity, cell-based; conditions: read-out: Ratio IC50
# [12] = Selectivity index, ratio of IC50 for human HeLa cells to IC50 for chloroquine-sensitive Plasmodium falciparum FCR3; format: toxicity, cell-based; conditions: read-out: Ratio IC50
# [13] = Selectivity index, ratio of IC50 for human HepG2 cells to IC50 for chloroquine-sensitive Plasmodium falciparum FCR3; format: toxicity, cell-based; conditions: read-out: Ratio IC50
# [14] = Selectivity index, ratio of IC50 for human A549 cells to IC50 for chloroquine-sensitive Plasmodium falciparum FCR3; format: toxicity, cell-based; conditions: read-out: Ratio IC50
smiles,measurement,setting,value
Cc1c(O)c(C)c2c(c1O)C(=O)OC(C)(O)[C@H]2C (stereo not given in full),selectivity ratio,[1],11.4
same,selectivity ratio,[2],1.4
same,IC50,Plasmodium falciparum [3],0.87 µg/mL
same,IC50,Plasmodium falciparum [4],0.62 µg/mL
same,Activity,Saccharomyces cerevisiae,inactive
same,IC50,[5],1.2 µg/mL
same,IC50,[6],9.88 µg/mL
same,IC50,[7],3.91 µg/mL
same,IC50,[8],15.9 µg/mL
same,selectivity ratio,[9],4.49
same,selectivity ratio,[10],18.3
same,selectivity ratio,[11],2
same,selectivity ratio,[12],15.9
same,selectivity ratio,[13],6.31
same,selectivity ratio,[14],25.6
